# Data taken from patent publication US10632064B2, “Topical regional neuro affective therapy with cannabinoid combination products” (Afgin Pharma, LLC, priority 2015, dated 2020).
# “And” between values parts separate entries of the source, which are not always exact repeats. Equal entries are not always repeated. “Also recorded” adds a separate entry of the source.
# Assays:
# [1] = test system: human patient with episodic severe post-operative neuralgic head pain; experiment: Example 6: topical cannabidiol 40 mg at the BONATH, post-operative neuralgic head pain, EEG; assay type: in vivo
# Experimental: The efficacy of a topical cannabidiol formulation was studied in a human patient (s/p resection right clival meningioma) suffering from episodic severe post-operative neuralgic head pain suffering from severe right-sided neuralgic head pain every 15-20 seconds. The patient was treated with cannabidiol 40 mg applied to the BONATH in a topical formulation. There was attenuation of associated focal EEG abnormalities. […] The neuralgic head pain was less severe by about 50% (frequency decreased to every 2-5 minutes).
# [2] = test system: patients having back/spine pain, fibromyalgia, and/or extremity pain; experiment: Example 10: topical CBD (Table 4); assay type: in vivo, human
# Experimental: In Example 10, 16 patients having back/spine pain, fibromyalgia, and/or extremity pain were treated with topical CBD at the back of the neck. The treatment comprised a dose of either 15 mg or 30 mg cannabinoid drugs, with the majority being CBD, the source of the CBD being CBD oil commercially available from CannaVest.
# [3] = test system: patient with atonic seizures; experiment: Example 17: 1 g of 1.6% CBD cream nuchal, atonic seizures, EEG; assay type: in vivo, human
# Experimental: In Example 17, a patient presented with atonic seizures. The patient would suddenly freeze and fall down (e.g., riding a bike, at school, etc.). FIG. 11 is a baseline EEG taken at the initial examination, showing cortical irritability on the left central region c/w potential for seizures.
# The patient was treated with 1 g of 1.6% CBD cream to the nuchal (back of the neck). […] FIG. 13 is a brain MRI of the patient showing a left thalamic hamartoma, a benign developmental process, likely irritating the brain and causing their seizures.
# [4] = test system: human patient having a remote head injury, s/p 4 craniotomies and intractable seizures; experiment: Example 7: topical cannabidiol 40 mg at the BONATH, intractable seizures, EEG; assay type: in vivo; settings: cannabidiol 40 mg topical at BONATH
# Experimental: The efficacy of a topical cannabidiol formulation was studied in a human patient having a remote head injury, s/p 4 craniotomies and intractable seizures. The patient was treated with cannabidiol 40 mg applied to the BONATH in a topical formulation. There was attenuation of associated focal EEG abnormalities.
# [5] = test system: patient with autism and generalized seizures; experiment: Example 15: 1 g of 2% CBD cream nuchal, autism and generalized seizures, EEG; assay type: in vivo, human
# Experimental: In Example 15, a patient presented with autism and generalized seizures. They were uncontrolled on Lamictal, Depakote, Keppra, Zonegran, ethosuximide/Zarontin. When examined, they presented with seizures about every 2 weeks on Banzel, Onfi, and Topamax as antiepileptics. FIG. 7 is a baseline EEG taken at the initial examination, showing seizure focus, showing generalized slowing and disorganization with left frontal sharp waves and paroxysms of sharp waves and spikes.
# The patient was treated with 1 g of 2% CBD cream to the nuchal (back of the neck). […] They continued therapy with the topical CBD cream to the nuchal region twice daily, and the Topamax was tapered off, resulting in added overall improved encephalopathy.
# [6] = test system: human patients; experiment: Example 5: topical cannabidiol (CBD) formulation on the back of the neck, 40 mg dose, patient cases (Table 1); assay type: in vivo
# Experimental: The following patients were treated with a topical cannabidiol (CBD) formulation administered on the back of the neck on human patients at a 40 mg dose, as more specifically described below in Table 1: […]
# [7] = test system: patients having seizures, encephalopathy, and/or spasticity; experiment: Example 8: topical CBD at the back of the neck (Table 2); assay type: in vivo, human
# Experimental: In Example 8, 34 patients having seizures, encephalopathy, and/or spasticity were treated with topical CBD at the back of the neck. The treatment comprised a dose of either 15 mg or 30 mg cannabinoid drugs, with the majority being CBD, the source of the CBD being CBD oil commercially available from CannaVest.
# [8] = test system: patient with head injury and seizures; experiment: Example 14: 1 g of 1.6% CBD cream nuchal twice a day, intractable complex partial seizures, EEG; assay type: in vivo, human
# Experimental: They presented with seizures (intractable complex partial seizures with secondary generalization; episodes of encephalopathy for 24 hours thereafter). […] They had had 5 craniotomies, and previously had been treated with Dilantin, Carbatrol, Keppra, Lamictal, and Depakote. Their current medications were Vimpat and Onfi (clobazam).
# The patient was treated with 1 g of 1.6% CBD cream to the nuchal (back of the neck) region twice a day. […] The patient remained on Vimpat, and their dose of Onfi was reduced by half.
# [9] = test system: patients having a variety of conditions; experiment: Example 18: topical CBD cream compounded from crystalline powder (Table 7); assay type: in vivo, human; settings: 1% topical CBD; single patients
# Experimental: The CBD was compounded in crystalline powder form rather than in CBD-oil form into the topical cream. The doses were 7.5 mg (0.75% topical CBD cream), 10 mg (1% topical CBD cream), 15 mg (1.5% topical CBD cream) or 20 mg (2% topical CBD cream).
# [10] = test system: patients having headaches and neck pain; experiment: Example 9: topical CBD at the back of the neck (Table 3); assay type: in vivo, human
# Experimental: In Example 9, 13 patients having headaches and neck pain were treated with topical CBD at the back of the neck. The treatment comprised a dose of either 15 mg or 30 mg cannabinoid drugs, with the majority being CBD, the source of the CBD being CBD oil commercially available from CannaVest.
# [11] = test system: patients having Parkinson's disease, tremors, or movement disorders; experiment: Example 11: topical CBD at the back of the neck (Table 5); assay type: in vivo, human
# Experimental: In Example 11, 6 patients having Parkinson's disease, tremors, or movement disorders were treated with topical CBD at the back of the neck. The treatment comprised a dose of either 15 mg or 30 mg cannabinoid drugs, with the majority being CBD, the source of the CBD being CBD oil commercially available from CannaVest.
# [12] = test system: acute paranoid schizophrenia; settings: cited from earlier work
# [13] = cannabidiol 40 mg topical at BONATH
# [14] = 15 mg or 30 mg cannabinoid drugs (CBD oil) topical, one patient per entry
# [15] = after topical CBD, single patients
compound,measurement,setting,value
"C=C(C)[C@@H]1CCC(C)=C[C@H]1c1c(O)cc(CCCCC)cc1O [CBD, cannabidiol]",EEG after nuchal administration,[1]; [13],attenuation of the right temporal waves to a more normal state
same,duration of EEG improvement and clinical benefit,[1]; [13],"The EEG improvement lasted several minutes, but the clinical benefit lasted several hours"
same,neuralgic head pain less severe,[1]; [13],about 50%
same,frequency of neuralgic head pain after treatment (every ...),"[1]; cannabidiol 40 mg topical, before every 15-20 seconds",2 to 5 min
same,"result after topical CBD, in words (Table 4)",[2]; [14],Right hand symptoms improved after topical; also recorded: improved strength; also recorded: relief better than Tramadol; also recorded: improved mobility and back pain relief; also recorded: back of neck and back 3×/day; pain relief
same,pain reduction/relief,[2]; [15],pain diminished 40% with improved and 30-40% and 30% (2×) and 50% and 60% reduction in chronic pain within a few
same,left lower extremity pain after topical CBD,"[2]; person, before 6 of 10, after 10 minutes",2 /10
same,time after topical CBD at which the effect was seen,[2]; single patients,5 minutes (2×) and 10 minutes and within 10 minutes. and Within 15 minutes of topical CBD application and ≤ 15 minutes and ≤ 10 minutes and within 2 minutes of application.
same,EEG after CBD dose,[3]; 10 minutes after application of 1 g of 1.6% CBD cream (FIG. 12),attenuated seizure focus
same,seizure status on treatment,"[3]; topical CBD nuchal since October 2015, only medication",seizure-free since initiating topical CBD therapy
same,EEG post-treatment,[4],the right fast activity and sharp waves were attenuated
same,clinical result,"[5]; 2% CBD cream nuchal, continued twice daily",more alert and interactive; also recorded: Seizure frequency also was reduced
same,EEG after CBD application,[5]; within one minute of application of 1 g of 2% CBD cream (FIG. 8),improvement in the EEG background without previous burst activity; also recorded: right fast activity and sharp waves attenuated
same,time after topical CBD at which the effect was seen,"[6]; 40 mg topical CBD on back of neck, single patients","10-15 minutes after nuchal and 15 minutes and within 15 minutes. and 10 minutes after topical CBD, and hand function within 15 minutes; and 20 minutes after 40 mg topical and 5 minutes after 40 mg topical and 5 minutes and 10-15 minutes after topical CBD,"
same,anxiety level after nuchal topical CBD,"[6]; 40 mg, person in panic attack, before 7-8 of 10",anxiety from 7-8 of 10 to 4 of 10
same,time without freezing episodes after one dose,"[6]; one dose of 40 mg topical CBD, Parkinson's patient with 10-12 freezing episodes per day",over 24 hours; also more
same,time after topical CBD at which the effect was seen,"[7]; 15 mg or 30 mg, back of neck, single patients","15 minutes after application of topical CBD and 10 minutes after topical CBD to back of and state within 10 minutes. and ≤ 15 minutes and 3 minutes after topical CBD application, and 30 minutes after topical CBD to back of"
same,seizure frequency reduced,"[7]; after 2 months use, person with Aicardi syndrome, intractable seizures",reduced 60%. Prior doses of Lamicatal and
same,spasticity decrease/improvement,"[7]; after one application/treatment of topical CBD to back of neck, single patients",80% and Severe baseline spasticity improved 70% and spasticity by 30% from baseline. and 30% reduction in spasticity in all 4
same,duration of effect,"[7]; person s/p head injury, topical CBD to back of neck",lasted 8 hours. Now on 3×/day.
same,seizure status on treatment,"[8]; 16 mg nuchal topical CBD twice daily with Vimpat and Onfi, one year follow-up and 20 months",the patient was seizure-free; also recorded: remained seizure-free since June 2014
same,follow-up EEG post-treatment,[8]; one year follow-up (FIG. 6),right fast activity and sharp waves attenuated; also recorded: no longer showing seizure potential
same,pain decrease,[9],50%
same,"result after topical CBD, in words (Table 3)",[10]; [14],"improved mobility and After week of daily use, headache free and calm, less anxious, and breathing easier. and Headache and neck pain resolved and Chronic daily headaches resolved after daily and Neck pain resolved and 2×/day with benefit for past 2 months. Injury and the neck, pain resolve and ROM improved and chronic headache and improved range and Pain resolved after several and All pain symptoms resolved after 3 weeks of"
same,right facial weakness and decreased sensation improved,"[10]; Bell's palsy, CBD to back of neck and region of stylomastoid foramen",30%
same,"pain (headache, neck, TMJ, back, thoracic) reduction",[10]; [15],50% and diminished 50% for the first time. Prescribed and Chronic back pain improved 30% and Thoracic pain reduced 30% within and Headaches and neck pain improved 30% with
same,ROM of neck improved,"[10]; person, 5 minutes after topical CBD to the neck",80%. Will continue to use daily.
same,time after topical CBD at which the effect was seen,[10]; single patients,"5 minutes after topical CBD to back of neck, and 5-10 minutes and 5 minutes after topical CBD application to and ≤ 15 minutes and within 15 minutes after topical CBD and ≤ 10 minutes of topical CBD"
same,"result after topical CBD, in words (Table 5)","[11]; 15 mg or 30 mg cannabinoid drugs (CBD oil) at back of neck, one patient per entry",resolved festination/small steppage; also recorded: Facial twitching improved after
same,time after topical CBD at which the effect was seen,[11]; single patients,15 minutes after one application and 10 minutes and 10 minutes after topical CBD appli- and 5 minutes; now using 3×/ day.
same,psychotic symptoms,[12]; after 2 weeks,significant decrease in psychotic symptoms
same,side effects,[12]; compared with amisulpride,significantly fewer side effects
